# “Also recorded” adds a separate entry of the source. Read-outs that look alike come from different tables or passages of the source.
# Assays:
# [1] = Hygroscopicity of RTA 408 solid forms (DVS, TGA-MS); assay type: physicochemical
# HIV = conditions: macrophages; cited from earlier work
# [2] = monkey, in vivo; cited from earlier work
# [3] = Phase 1 drug-drug interaction study: omaveloxolone alone and with itraconazole in healthy subjects
# CYP3A4/5 [4] = conditions: human liver microsomes and recombinantly-expressed CYPs
# cerebral granule neurons = conditions: cited from earlier work
# CYP3A4/5 [5] = assay: in vitro; conditions: human, human liver microsomes
# [6] = Chemical stability of RTA 408 amorphous form in organic solvents and aqueous media; assay type: physicochemical; conditions: 1 mg/mL; acetone, EtOAc, MeOH, MeCN, 1% aq. Tween 80, SDS, CTAB; 6 h, 24 h, 2 d, 7 d
# Procedure: The chemical stability of the amorphous form was investigated in organic solvents, including acetone, EtOAc, MeOH, and MeCN, as well as different aqueous media (e.g., 1% aq. Tween 80, 1% aq. SDS, 1% aq. CTAB) at a concentration of 1 mg/mL at time points 6 h, 24 h, 2 d, and 7 d.
# [7] = Storage stability of RTA 408 amorphous form under elevated temperature and humidity (PXRD); assay type: physicochemical; conditions: open at 25° C./62% r.h. and 40° C./75% r.h., closed at 60° C. and 80° C., up to four weeks
# Procedure: In addition, the stability of the amorphous form was investigated by storage under elevated temperature and humidity conditions (open at 25° C./62% r.h. and 40° C./75% r.h. and closed at 60° C. and 80° C.). After one week, two weeks, and four weeks, the stored samples were analyzed by PXRD.
# [8] = cited from earlier work; for Occurrence of Death / Occurrence of ESRD: ITT
# [9] = cited from earlier work
# [10] = Drug-drug interaction study: bardoxolone methyl alone and with itraconazole in healthy volunteers; conditions: itraconazole alone, 200 mg daily (Period 2)
# [11] = 150 mg omaveloxolone alone (Reference), plasma
# [12] = 200 mg itraconazole QD + 150 mg omaveloxolone (Test), plasma
# [13] = Test vs Reference statistical analysis
# [14] = Test: 200 mg itraconazole QD + 150 mg omaveloxolone, n = 13
# [15] = omaveloxolone + itraconazole vs omaveloxolone alone
# [16] = ASCEND, avosentan 25 mg (N = 455)
# [17] = ASCEND, avosentan 50 mg (N = 478)
smiles,measurement,setting,value
CC1(C)CC[C@]2(NC(=O)C(C)(F)F)CC[C@]3(C)[C@H](C(=O)C=C4[C@@]5(C)C=C(C#N)C(=O)C(C)(C)[C@@H]5CC[C@]43C)[C@@H]2C1,"Hygroscopicity, mass gain",[1]; from 50% r.h. to 85% r.h.,~0.7 wt.-%
"CC1(C)CC[C@]2(C(=O)O)CC[C@]3(C)[C@H](C(=O)C=C4[C@@]5(C)C=C(C#N)C(=O)C(C)(C)[C@@H]5CC[C@]43C)[C@@H]2C1 [CDDO, 2-cyano-3,12-dioxooleane-1,9(11)-dien-28-oic acid]",Replication of HIV,HIV,can inhibit the replication of HIV in macrophages
COC(=O)[C@]12CCC(C)(C)C[C@H]1[C@H]1C(=O)C=C3[C@@]4(C)C=C(C#N)C(=O)C(C)(C)[C@@H]4CC[C@@]3(C)[C@]1(C)CC2 [Form B CDDO-Me],Oral bioavailability,[2],higher than that of Form A
CC1(C)CC[C@]2(NC(=O)C(C)(F)F)CC[C@]3(C)[C@H](C(=O)C=C4[C@@]5(C)C=C(C#N)C(=O)C(C)(C)[C@@H]5CC[C@]43C)[C@@H]2C1 [Omaveloxolone],"AUC0-t, geometric mean",[3]; [11],1730 ng·h/mL
same,"AUC0-∞, geometric mean",[3]; [11],1730 ng·h/mL
same,"CL/F, geometric mean",[3]; [11],86.7 L/h
same,"Cmax, geometric mean",[3]; [11],43.0 ng/mL
same,"t1/2, geometric mean",[3]; [11],89.8 h
same,"Increase in systemic exposure, AUC0-∞, with itraconazole","[3]; 150 mg, itraconazole 200 mg QD",approximately 4 fold
same,"Increase in systemic exposure, Cmax, with itraconazole","[3]; 150 mg, itraconazole 200 mg QD",~3 fold
same,"Ratio (90% CI) of geometric LS means, AUC0-∞ (with itraconazole vs alone)","[3]; 150 mg, itraconazole 200 mg QD","4.12 (3.48, 4.87)"
same,"Ratio (90% CI) of geometric LS means, Cmax (with itraconazole vs alone)","[3]; 150 mg, itraconazole 200 mg QD","2.77 (2.17, 3.54)"
same,"AUC0-t, geometric mean",[3]; [12],6340 ng·h/mL
same,"AUC0-∞, geometric mean",[3]; [12],7280 ng·h/mL
same,"CL/F, geometric mean",[3]; [12],20.6 L/h
same,"Cmax, geometric mean",[3]; [12],116 ng/mL
same,"t1/2, geometric mean",[3]; [12],78.1 h
same,"AUC0-∞, GLSM","[3]; Reference: 150 mg omaveloxolone alone, n = 14",1730 ng·h/mL
same,"Cmax, GLSM","[3]; Reference: 150 mg omaveloxolone alone, n = 15",43.0 ng/mL
same,"AUC0-∞, Within-subject CV %",[3]; [13],24.4%
same,"Cmax, Within-subject CV %",[3]; [13],36.8%
same,"AUC0-∞, GLSM",[3]; [14],7130 ng·h/mL
same,"Cmax, GLSM",[3]; [14],119 ng/mL
same,half-life,"[3]; both, human, plasma, oral, 150 mg",89.8 h
same,Tmax,"[3]; both, human, plasma, oral, 150 mg, Median Tmax (min-max), 150 mg single dose, alone",12 h
same,Tmax,"[3]; both, human, plasma, oral, 150 mg, tmax, median, Reference: 150 mg omaveloxolone alone, n = 15, Wilcoxon signed rank analysis",8 h
same,Tmax,"[3]; both, human, plasma, oral, Median Tmax (min-max), 150 mg co-administered with 200 mg itraconazole QD",6 h
same,Tmax,"[3]; both, human, plasma, oral, tmax, median, Test: 200 mg itraconazole QD + 150 mg omaveloxolone, n = 13, Wilcoxon signed rank analysis",6 h
same,"Within-subject variability of AUC0-∞, geometric CV %","[3]; human, in vivo",24.4%
same,"Within-subject variability of Cmax, geometric CV %","[3]; human, in vivo",36.8%
same,"AUC0-∞, Ratio of GLSMs (Test:Reference)",[3]; [15],4.12
same,"Cmax, Ratio of GLSMs (Test:Reference)",[3]; [15],2.77
same,Subjects reporting TEAEs,"[3]; omaveloxolone alone, 15 subjects",2 subjects
same,Subjects reporting TEAEs,[3]; omaveloxolone in combination with itraconazole,no subjects reported TEAEs
same,"Clinical laboratory evaluations, vital signs, ECG parameters",[3]; whole study,no clinically significant findings
same,Deaths or SAEs,[3]; whole study,no deaths or SAEs
same,Metabolizing enzyme,CYP3A4/5 [4],metabolized by CYP3A4
same,Protection from hydrogen peroxide-induced oxidative stress,cerebral granule neurons,significant protection
same,Km,CYP3A4/5 [5],1.12 µM
CC1(C)CC[C@]2(NC(=O)C(C)(F)F)CC[C@]3(C)[C@H](C(=O)C=C4[C@@]5(C)C=C(C#N)C(=O)C(C)(C)[C@@H]5CC[C@]43C)[C@@H]2C1 [RTA 408 amorphous form],"Chemical stability, decomposition",[6],Decomposition ≥1% was observed only for solutions in MeCN after 7 days and for suspensions in the 1% aqueous Tween 80 medium
same,Stability under elevated temperature and humidity conditions,[7],stable for at least four weeks; also recorded: None of the samples differed from the amorphous starting material
same,"Hygroscopicity, Δm","[1]; DVS, 50%→85% r.h.",+0.4%
COc1ccccc1Oc1c(NS(=O)(=O)c2ccc(C)cn2)nc(-c2ccncc2)nc1OC [avosentan],Occurrence of Death,[8]; [16],3.6%
same,Occurrence of ESRD,[8]; [16],4.4%
same,Occurrence of Death,[8]; [17],4.6%
same,Occurrence of ESRD,[8]; [17],5.0%
same,Death,[8]; ASCEND,"modest, non-significant increase in death"
same,ESRD events,[8]; ASCEND,"small, numerical reduction in ESRD events"
same,Risk of congestive heart failure (CHF),"[8]; human, in vivo",approximate three-fold increase
CCC(C)n1ncn(-c2ccc(N3CCN(c4ccc(OCC5COC(Cn6cncn6)(c6ccc(Cl)cc6Cl)O5)cc4)CC3)cc2)c1=O (stereo not shown) [itraconazole],Peak plasma level at steady state,[9]; 100 mg once daily,0.5 µg/mL
same,Peak plasma level at steady state,[9]; 200 mg once daily,1.1 µg/mL
same,Peak plasma level at steady state,[9]; 200 mg twice daily,2.0 µg/mL
same,Renal excretion of itraconazole and hydroxy-itraconazole,[9]; in vivo,less than 1 % of an intravenous dose
same,Time to peak steady state,[9]; repeated administration,about 15 days
same,"Subjects with a TEAE, n (%)",[10],1 (6.7%)
